In patent publication US8497385B2, “Bryostatin analogues, synthetic methods and uses” (The Board of Trustees of the Leland Stanford Junior …, priority 2007, dated 2013):

Assays:
Format in all cases: cell-based, human
MI4 = test: NCI growth inhibition, MI4 (Melanoma); settings: MI4, Melanoma
MCF7 = test: NCI growth inhibition, MCF7 (Breast); settings: MCF7, Breast
HL-60(TB) = test system: HL-60(TB)
SF-539 = test: NCI growth inhibition, SF-539 (CNS); settings: SF-539, CNS
SR = test: NCI growth inhibition, SR (Leukemia); settings: Leukemia
MALME-3M = test: NCI growth inhibition, MALME-3M (Melanoma)
COLO 205 = test: NCI growth inhibition, COLO 205 (Colon); settings: COLO 205, Colon
SK-MEL-5 = test: NCI growth inhibition, SK-MEL-5 (Melanoma); settings: SK-MEL-5, Melanoma
RPMI-8226 = test: NCI growth inhibition, RPMI-8226 (Leukemia); settings: RPMI-8226, Leukemia
OVCAR-3 = test: NCI growth inhibition, OVCAR-3 (Ovarian); settings: OVCAR-3, Ovarian
MDA-MB-435 = test: NCI growth inhibition, MDA-MB-435 (Breast); settings: MDA-MB-435, Breast
UACC-62 = test: NCI growth inhibition, UACC-62 (Melanoma); settings: UACC-62, Melanoma
MDA-MB-231/ATCC = test: NCI growth inhibition, MDA-MB-231/ATCC (Breast); settings: Breast
OVCAR-4 = test: NCI growth inhibition, OVCAR-4 (Ovarian); settings: OVCAR-4, Ovarian
HCT-15 = test: NCI growth inhibition, HCT-15 (Colon)
LOX IMVI = test: NCI growth inhibition, LOX IMVI (Melanoma); settings: Melanoma
MOLT-4 = test: NCI growth inhibition, MOLT-4 (Leukemia); settings: MOLT-4, Leukemia
U251 = test: NCI growth inhibition, U251 (CNS); settings: U251, CNS
K-562 = test: NCI growth inhibition, K-562 (Leukemia); settings: K-562, Leukemia
ACHN = test: NCI growth inhibition, ACHN (Renal); settings: Renal
SF-268 = test: NCI growth inhibition, SF-268 (CNS); settings: SF-268, CNS
SK-OV-3 = test: NCI growth inhibition, SK-OV-3 (Ovarian); settings: SK-OV-3, Ovarian
HOP-62 = test: NCI growth inhibition, HOP-62 (NSC Lung)
SW-620 = test: NCI growth inhibition, SW-620 (Colon); settings: SW-620, Colon
NCI-H322M = test: NCI growth inhibition, NCI-H322M (NSC Lung); settings: NSC Lung
OVCAR-8 = test: NCI growth inhibition, OVCAR-8 (Ovarian); settings: OVCAR-8, Ovarian
A549/ATCC = test: NCI growth inhibition, A549/ATCC (NSC Lung); settings: NSC Lung
DU-145 = test: NCI growth inhibition, DU-145 (Prostate); settings: DU-145, Prostate
HT29 = test: NCI growth inhibition, HT29 (Colon); settings: HT29, Colon
IGROVI = test: NCI growth inhibition, IGROVI (Ovarian); settings: Ovarian
EKVX = test: NCI growth inhibition, EKVX (NSC Lung); settings: NSC Lung
T-47D = test: NCI growth inhibition, T-47D (Breast); settings: Breast
HS 578T = test: NCI growth inhibition, HS 578T (Breast); settings: Breast
NCI-H23 = test: NCI growth inhibition, NCI-H23 (NSC Lung)
CCRF-CEM = test: NCI growth inhibition, CCRF-CEM (Leukemia); settings: Leukemia
NCI-H226 = test: NCI growth inhibition, NCI-H226 (NSC Lung)
PC-3 = test: NCI growth inhibition, PC-3 (Prostate); settings: PC-3, Prostate
SK-MEL-2 = test: NCI growth inhibition, SK-MEL-2 (Melanoma); settings: SK-MEL-2, Melanoma
UACC-257 = test: NCI growth inhibition, UACC-257 (Melanoma); settings: UACC-257, Melanoma
SNB-19 = test: NCI growth inhibition, SNB-19 (CNS); settings: SNB-19, CNS
NCI-H460 = test: NCI growth inhibition, NCI-H460 (NSC Lung); settings: NCI-H460, NSC Lung
HCC-2998 = test: NCI growth inhibition, HCC-2998 (Colon); settings: HCC-2998, Colon
BT-549 = test: NCI growth inhibition, BT-549 (Breast); settings: BT-549, Breast
NCI-H522 = test: NCI growth inhibition, NCI-H522 (NSC Lung)
RXF-393 = test: NCI growth inhibition, RXF-393 (Renal)
HCT-116 = test: NCI growth inhibition, HCT-116 (Colon); settings: HCT-116, Colon
SF-295 = test: NCI growth inhibition, SF-295 (CNS); settings: SF-295, CNS
SK-MEL-28 = test: NCI growth inhibition, SK-MEL-28 (Melanoma); settings: SK-MEL-28, Melanoma
A498 = test: NCI growth inhibition, A498 (Renal); settings: A498, Renal
786-0 = test: NCI growth inhibition, 786-0 (Renal); settings: 786-0, Renal
OVCAR-5 = test: NCI growth inhibition, OVCAR-5 (Ovarian); settings: OVCAR-5, Ovarian
KM12 = test: NCI growth inhibition, KM12 (Colon); settings: KM12, Colon
TK-10 = test: NCI growth inhibition, TK-10 (Renal); settings: TK-10, Renal
UO-31 = test: NCI growth inhibition, UO-31 (Renal); settings: UO-31, Renal
CAKI-1 = test: NCI growth inhibition, CAKI-1 (Renal); settings: CAKI-1, Renal
NCI/ADR-RES = test: NCI growth inhibition, NCI/ADR-RES (Breast)
HOP-92 = test: NCI growth inhibition, HOP-92 (NSC Lung); settings: HOP-92, NSC Lung
MDA-N = test: NCI growth inhibition, MDA-N (Breast)
SN12C = test: NCI growth inhibition, SN12C (Renal); settings: Renal
SNB-75 = test: NCI growth inhibition, SNB-75 (CNS); settings: SNB-75, CNS

## CCC/C=C/C=C/C(=O)O[C@H]1/C(=C/C(=O)OC)C[C@H]2C[C@H]([C@@H](C)O)OC(=O)C[C@H](O)C[C@@H]3C[C@H](OC(C)=O)C(C)(C)[C@](O)(C[C@@H]4C/C(=C/C(=O)OC)C[C@H](/C=C/C(C)(C)[C@]1(O)O2)O4)O3 [Bryo-1, Bryostatin-1, reference compound]
MI4
  GI50: >−5 log of molar concentration
MCF7
  GI50: −5.20 log of molar concentration
HL-60(TB)
  GI50: −5.70 log of molar concentration
SF-539
  GI50: >−5 log of molar concentration
SR
  GI50: >−5 log of molar concentration
MALME-3M
  GI50: −5.20 log of molar concentration
COLO 205
  GI50: −5.40 log of molar concentration
SK-MEL-5
  GI50: −5.70 log of molar concentration
RPMI-8226
  GI50: >−5 log of molar concentration
OVCAR-3
  GI50: −5.10 log of molar concentration
MDA-MB-435
  GI50: −5.10 log of molar concentration
UACC-62
  GI50: −5.30 log of molar concentration
MDA-MB-231/ATCC
  GI50: −5.20 log of molar concentration
OVCAR-4
  GI50: −5.50 log of molar concentration
HCT-15
  GI50: >−5 log of molar concentration
LOX IMVI
  GI50: −5.10 log of molar concentration
MOLT-4
  GI50: −5.50 log of molar concentration
U251
  GI50: −5.10 log of molar concentration
K-562
  GI50: −5.40 log of molar concentration
ACHN
  GI50: −5.50 log of molar concentration
SF-268
  GI50: −5.10 log of molar concentration
SK-OV-3
  GI50: −5.10 log of molar concentration
HOP-62
  GI50: >−5 log of molar concentration
SW-620
  GI50: −5.50 log of molar concentration
NCI-H322M
  GI50: −6.00 log of molar concentration
OVCAR-8
  GI50: −5.10 log of molar concentration
A549/ATCC
  GI50: −5.20 log of molar concentration
DU-145
  GI50: >−5 log of molar concentration
HT29
  GI50: −5.30 log of molar concentration
IGROVI
  GI50: −5.30 log of molar concentration
EKVX
  GI50: −5.30 log of molar concentration
T-47D
  GI50: −5.20 log of molar concentration
HS 578T
  GI50: −5.2 log of molar concentration
NCI-H23
  GI50: >−5 log of molar concentration
CCRF-CEM
  GI50: −5.30 log of molar concentration
NCI-H226
  GI50: >−5 log of molar concentration
PC-3
  GI50: −5.30 log of molar concentration
SK-MEL-2
  GI50: −5.20 log of molar concentration
UACC-257
  GI50: −5.10 log of molar concentration
SNB-19
  GI50: >−5 log of molar concentration
NCI-H460
  GI50: −5.60 log of molar concentration
HCC-2998
  GI50: −5.30 log of molar concentration
BT-549
  GI50: −5.10 log of molar concentration
NCI-H522
  GI50: >−5 log of molar concentration
RXF-393
  GI50: −5.30 log of molar concentration
HCT-116
  GI50: −5.30 log of molar concentration
SF-295
  GI50: −5.20 log of molar concentration
SK-MEL-28
  GI50: −5.10 log of molar concentration
A498
  GI50: >−5 log of molar concentration
786-0
  GI50: −5.20 log of molar concentration
OVCAR-5
  GI50: >−5 log of molar concentration
KM12
  GI50: −5.20 log of molar concentration
TK-10
  GI50: >−5 log of molar concentration
UO-31
  GI50: −5.60 log of molar concentration
CAKI-1
  GI50: −5.40 log of molar concentration
NCI/ADR-RES
  GI50: >−5 log of molar concentration
HOP-92
  GI50: −5.30 log of molar concentration
MDA-N
  GI50: −5.10 log of molar concentration
SN12C
  GI50: −5.10 log of molar concentration
SNB-75
  GI50: −5.50 log of molar concentration
